Laboratory results as given in the supplement of paper PMC10307832.

How the values were obtained:
Assay in all cases: relative viability (nuclei count vs DMSO), 5 days (fraction); higher = more cells survive
ABC-1 = system: ABC-1
Method in brief: (§1)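 Lung cancer cell lines were seeded in 1536-well plates and dosed by pin tool the next day, with either a single drug or a fixed anchor-drug dose combined with five library-drug doses (not always all listed) spaced in √10 steps. Five days later, one step fixed the cells and stained their nuclei (final 0.05% Triton X-100, 1% formaldehyde, 1 ug/ml Hoechst), and nuclei were counted on 4× images. Relative viability is the nuclei count in treated wells divided by the count in vehicle wells, and each value is the median of duplicate plates.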

201T = system: 201T
Method in brief: as §1

NCI-H1437 = system: NCI-H1437
Method in brief: as §1

CAL-12T = system: CAL-12T
Method in brief: as §1

SW 900 = system: SW 900
Method in brief: as §1

NCI-H727 = system: NCI-H727
Method in brief: as §1

NCI-H460 = system: NCI-H460
Method in brief: as §1

NCI-H1650 = system: NCI-H1650
Method in brief: as §1

NCI-H2170 = system: NCI-H2170
Method in brief: as §1

HARA = system: HARA
Method in brief: as §1

NCI-H2009 = system: NCI-H2009
Method in brief: as §1

NCI-H3122 = system: NCI-H3122
Method in brief: as §1

NCI-H1666 = system: NCI-H1666
Method in brief: as §1

EKVX = system: EKVX
Method in brief: as §1

HCC-366 = system: HCC-366
Method in brief: as §1

COR-L 105 = system: COR-L 105
Method in brief: as §1

LK-2 = system: LK-2
Method in brief: as §1

BEN = system: BEN
Method in brief: as §1

LOU-NH91 = system: LOU-NH91
Method in brief: as §1

NCI-H441 = system: NCI-H441
Method in brief: as §1

PC-14 = system: PC-14
Method in brief: as §1

NCI-H661 = system: NCI-H661
Method in brief: as §1

Compound COc1nc(C)cnc1NS(=O)(=O)c1cccnc1-c1ccc(-c2nnco2)cc1 [Zibotentan] + N=C(N)NC(=N)NCCc1ccccc1 [Phenformin] (partner 250 µM) has a relative viability (ABC-1; first compound 0.08 µM) of 0.236, a relative viability (ABC-1; first compound 0.253 µM) of 0.235 and a relative viability (ABC-1; first compound 0.8 µM) of 0.252. The relative viability (ABC-1; first compound 2.53 µM) was 0.227, the relative viability (201T; first compound 0.08 µM) was 0.477 and the relative viability (201T; first compound 0.253 µM) was 0.451. The relative viability (201T; first compound 0.8 µM) was 0.441, the relative viability (201T; first compound 2.53 µM) was 0.442 and the relative viability (NCI-H1437; first compound 0.08 µM) was 0.308. The relative viability (NCI-H1437; first compound 0.253 µM) was 0.297, the relative viability (NCI-H1437; first compound 0.8 µM) was 0.297 and the relative viability (NCI-H1437; first compound 2.53 µM) was 0.347. It also gave a relative viability (CAL-12T; first compound 0.08 µM) of 0.602, a relative viability (CAL-12T; first compound 0.253 µM) of 0.482 and a relative viability (CAL-12T; first compound 0.8 µM) of 0.554. It also gave a relative viability (CAL-12T; first compound 2.53 µM) of 0.609, a relative viability (SW 900; first compound 0.08 µM) of 0.557 and a relative viability (SW 900; first compound 0.253 µM) of 0.502. For the same compound, the relative viability (SW 900; first compound 0.8 µM) was 0.669, the relative viability (SW 900; first compound 2.53 µM) was 0.801 and the relative viability (NCI-H727; first compound 0.08 µM) was 0.41. For the same compound, the relative viability (NCI-H727; first compound 0.253 µM) was 0.519, the relative viability (NCI-H727; first compound 0.8 µM) was 0.553 and the relative viability (NCI-H727; first compound 2.53 µM) was 0.627. For the same compound, the relative viability (NCI-H460; first compound 0.08 µM) was 0.56, the relative viability (NCI-H460; first compound 0.253 µM) was 0.147 and the relative viability (NCI-H460; first compound 0.8 µM) was 0.496. For the same compound, the relative viability (NCI-H460; first compound 2.53 µM) was 0.532, the relative viability (NCI-H1650; first compound 0.08 µM) was 0.454 and the relative viability (NCI-H1650; first compound 0.8 µM) was 0.516. For the same compound, the relative viability (NCI-H1650; first compound 2.53 µM) was 0.428, the relative viability (NCI-H2170; first compound 0.08 µM) was 0.451 and the relative viability (NCI-H2170; first compound 0.253 µM) was 0.389. For the same compound, the relative viability (NCI-H2170; first compound 0.8 µM) was 0.436, the relative viability (NCI-H2170; first compound 2.53 µM) was 0.39 and the relative viability (HARA; first compound 0.08 µM) was 0.462. For the same compound, the relative viability (HARA; first compound 0.253 µM) was 0.429, the relative viability (HARA; first compound 0.8 µM) was 0.217 and the relative viability (HARA; first compound 2.53 µM) was 0.489. It also gave a relative viability (NCI-H2009; first compound 0.08 µM) of 0.494, a relative viability (NCI-H2009; first compound 0.253 µM) of 0.469 and a relative viability (NCI-H2009; first compound 0.8 µM) of 0.542. For the same compound, the relative viability (NCI-H2009; first compound 2.53 µM) was 0.481, the relative viability (NCI-H3122; first compound 0.08 µM) was 0.378 and the relative viability (NCI-H3122; first compound 0.8 µM) was 0.408. It also gave a relative viability (NCI-H3122; first compound 2.53 µM) of 0.373, a relative viability (NCI-H1666; first compound 0.08 µM) of 0.515 and a relative viability (NCI-H1666; first compound 0.253 µM) of 0.54. The relative viability (NCI-H1666; first compound 0.8 µM) was 0.596, the relative viability (NCI-H1666; first compound 2.53 µM) was 0.559 and the relative viability (EKVX; first compound 0.08 µM) was 0.242. The relative viability (EKVX; first compound 0.253 µM) was 0.238, the relative viability (EKVX; first compound 0.8 µM) was 0.249 and the relative viability (EKVX; first compound 2.53 µM) was 0.245. It also gave a relative viability (HCC-366; first compound 0.08 µM) of 0.692, a relative viability (HCC-366; first compound 0.253 µM) of 0.62 and a relative viability (HCC-366; first compound 0.8 µM) of 0.577. The relative viability (HCC-366; first compound 2.53 µM) was 0.603, the relative viability (COR-L 105; first compound 0.08 µM) was 0.382 and the relative viability (COR-L 105; first compound 0.253 µM) was 0.423. The relative viability (COR-L 105; first compound 0.8 µM) was 0.406, the relative viability (COR-L 105; first compound 2.53 µM) was 0.554 and the relative viability (LK-2; first compound 0.08 µM) was 0.354. The relative viability (LK-2; first compound 0.253 µM) was 0.403, the relative viability (LK-2; first compound 0.8 µM) was 0.467 and the relative viability (LK-2; first compound 2.53 µM) was 0.59. For the same compound, the relative viability (BEN; first compound 0.08 µM) was 0.278, the relative viability (BEN; first compound 0.253 µM) was 0.261 and the relative viability (BEN; first compound 0.8 µM) was 0.241. The relative viability (BEN; first compound 2.53 µM) was 0.264, the relative viability (LOU-NH91; first compound 0.08 µM) was 0.712 and the relative viability (LOU-NH91; first compound 0.253 µM) was 0.683. It also gave a relative viability (LOU-NH91; first compound 0.8 µM) of 0.798, a relative viability (LOU-NH91; first compound 2.53 µM) of 0.819 and a relative viability (NCI-H441; first compound 0.08 µM) of 1.07. It also gave a relative viability (NCI-H441; first compound 0.253 µM) of 0.665, a relative viability (NCI-H441; first compound 0.8 µM) of 0.926 and a relative viability (NCI-H441; first compound 2.53 µM) of 0.895. It also gave a relative viability (PC-14; first compound 0.08 µM) of 0.692, a relative viability (PC-14; first compound 0.253 µM) of 0.377 and a relative viability (PC-14; first compound 0.8 µM) of 0.66. The relative viability (PC-14; first compound 2.53 µM) was 0.601, the relative viability (NCI-H661; first compound 0.08 µM) was 0.267 and the relative viability (NCI-H661; first compound 0.253 µM) was 0.252. The relative viability (NCI-H661; first compound 0.8 µM) was 0.281 and the relative viability (NCI-H661; first compound 2.53 µM) was 0.296.
